Reference: patent US7056910B2, “1,4,5.6-tetrahydroimidazo[4,5-d]diazepine derivatives or salts thereof” (Astellas Pharma Inc., priority 2000, dated 2006)
Structures can show the parent of a compound that is named as a salt.

Tests used:
[1] = target: T1, arginine vasopressin V2 receptor (Rattus norvegicus, UniProt Q00788); assay: V2 receptor binding assay ([3H]-vasopressin, rat renal medullary membrane specimen); settings: [3H]-vasopressin 0.5 nM, read-out: Binding activity against arginine vasopressin V2 receptor (pKi) (converted)
T1 construct: A rat renal medullary membrane specimen was prepared; from tissue; host or cells: rat renal medulla (membrane specimen)
Protocol: (2) V2 Receptor Binding Assay:
A rat renal medullary membrane specimen was prepared according to the method of Cambell, et al. (Journal of Biological Chemistry, Vol. 247, No. 19, pp. 6167–6175, 1972). The rat renal medullary membrane specimen (200 μg) was treated together with [^3H]-vasopressin (0.5 nM, specific activity: 75 Ci/mmol) and a test compound (from 10^−10 to 10^−6 M) in the same manner as in the foregoing V1A receptor binding assay, and the same measurement was carried out to determine a pKi value.

[2] = target: T2, arginine vasopressin V1A receptor (Rattus norvegicus, UniProt P30560); assay: V1A receptor binding assay ([3H]-vasopressin, rat hepatic membrane specimen); settings: [3H]-vasopressin 0.5 nM, 25° C., 60 minutes, read-out: Binding activity against arginine vasopressin V1A receptor (pki) (converted)
T2 construct: A rat hepatic membrane specimen was prepared; from tissue; host or cells: rat liver (hepatic membrane specimen)
Protocol: (1) V1A Receptor Binding Assay:
A rat hepatic membrane specimen was prepared according to the method of Nakamura, et al. (Journal of Biological Chemistry, Vol. 258, No. 15, pp. 9283–9289, 1983). The hepatic membrane specimen (30 μg) was incubated at 25° C. for 60 minutes in a total amount of 250 μL of a 50 mM TRIS-HCl buffer solution (pH: 7.4) containing 10 mM magnesium chloride and 0.1% bovine serum albumin (BSA), together with [^3H]-Arg-vasopressin (hereinafter simply referred to as “[^3H]-vasopressin”) (0.5 nM, specific activity: 75 Ci/mmol) and a test compound (from 10^−10 to 10^−6 M). Thereafter, liberated [^3H]-vasopressin and receptor-binding [^3H]-vasopressin were separated from each other by using a cell harvester, and the receptor-binding [^3H]-vasopressin was adsorbed on a UniFilter plate, GF/B glass filter. After thoroughly drying, the receptor-binding [^3H]-vasopressin was mixed with a microplate scintillation cocktail, the amount of the receptor-binding [^3H]-vasopressin was measured by using TopCount, and an inhibition rate was calculated according to the following equation. Inhibition rate (%)=[100−(C1−B1)]/(C0−B1)×100 C1: An amount of [^3H]-vasopressin binding to the membrane specimen when treating the receptor membrane specimen in the co-presence of the test compound having a known concentration and [^3H]-vasopressin C0: An amount of [^3H]-vasopressin binding to the membrane specimen when treating the receptor membrane specimen in the presence of [^3H]-vasopressin and in the absence of the test compound B1: An amount of [^3H]-vasopressin binding to the membrane specimen when treating the receptor membrane specimen in the co-presence of [^3H]-vasopressin and an excessive amount of vasopressin (10^−6 M)
According to the foregoing equation, a concentration of the test compound at the inhibition rate of 50% (IC50 value) was calculated, from which was then calculated an affinity of the test compound with the receptor, i.e., a dissociation constant (Ki), according to the following equation. Ki=IC50/(1+[L]/Kd) [L]: A concentration of [^3H]-vasopressin Kd: A dissociation constant of [^3H]-vasopressin against the receptor as determined by the saturation binding assay
A logarithm of the Ki value as calculated according to the foregoing equation was taken, and its negative value was defined as a pKi value.

[3] = target: drug metabolizing enzyme CYP3A4 (Homo sapiens, UniProt P08684); assay: Cytochrome P450 (3A4) inhibition assay (BFC substrate, fluorescence); assay type: in vitro ADME; settings: BFC 5×10^−5 M substrate, 37° C., 30 minutes; read-out: Inhibition activity against drug metabolizing enzyme CYP3A4 (IC50/μM)
Protocol: (3) Cytochrome P450 (3A4) Inhibition Assay:
An assay was carried out according to the method of Crespi, et al. (Analytical Biochemistry, 248, 188–190, 1997). Using a 96-well plate, BFC (5×10^−5 M) as a substrate, a test compound (from 9.1×10^−8 to 2×10^−5 M), and an enzyme (10^−8 M) were incubated at 37° C. for 30 minutes in a total amount of 100 μL of a 20 mM phosphoric acid buffer solution (pH: 7.4) containing 1.3 mM NADP+, 3.3 mM glucose-6-pharpahte, 3.3 mM magnesium chloride, and 0.4 Units/mL glucose-6-phosphate dehydrogenase. Thereafter, a 100 mM TRIS buffer solution containing 80% acetonitrile was added to stop the reaction, and a fluorescent intensity (excitation wavelength: 409 nm, fluorescent wavelength: 530 nm) was measured by a fluorescent plate reader. An inhibition rate was calculated according to the following equation, and a concentration of the test compound at the inhibition rate of 50% (IC50 value) was determined. Inhibition rate (%)=[100−(C1−B1)]/(C0−B1)×100 C1: A fluorescent intensity in the presence of the test compound having a known concentration, enzyme and the substrate C0: A fluorescent intensity in the presence of enzyme and the substrate and in the absence of the test compound B1: A fluorescent intensity of the blank well

T2 sequence (P30560 whole entry): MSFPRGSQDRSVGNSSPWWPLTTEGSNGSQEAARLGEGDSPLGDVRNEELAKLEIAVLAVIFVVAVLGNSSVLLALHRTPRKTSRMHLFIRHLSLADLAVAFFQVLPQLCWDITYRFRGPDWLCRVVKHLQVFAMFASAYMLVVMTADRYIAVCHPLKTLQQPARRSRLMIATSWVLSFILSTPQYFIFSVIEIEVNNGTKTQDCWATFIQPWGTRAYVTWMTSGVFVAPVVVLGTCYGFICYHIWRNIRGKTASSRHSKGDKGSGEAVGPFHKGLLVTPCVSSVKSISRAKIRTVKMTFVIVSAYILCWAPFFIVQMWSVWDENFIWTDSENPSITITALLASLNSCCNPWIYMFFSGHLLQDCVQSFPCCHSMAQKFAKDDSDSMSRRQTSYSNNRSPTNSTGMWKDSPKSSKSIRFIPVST
Sequence of drug metabolizing enzyme CYP3A4 (P08684 whole entry): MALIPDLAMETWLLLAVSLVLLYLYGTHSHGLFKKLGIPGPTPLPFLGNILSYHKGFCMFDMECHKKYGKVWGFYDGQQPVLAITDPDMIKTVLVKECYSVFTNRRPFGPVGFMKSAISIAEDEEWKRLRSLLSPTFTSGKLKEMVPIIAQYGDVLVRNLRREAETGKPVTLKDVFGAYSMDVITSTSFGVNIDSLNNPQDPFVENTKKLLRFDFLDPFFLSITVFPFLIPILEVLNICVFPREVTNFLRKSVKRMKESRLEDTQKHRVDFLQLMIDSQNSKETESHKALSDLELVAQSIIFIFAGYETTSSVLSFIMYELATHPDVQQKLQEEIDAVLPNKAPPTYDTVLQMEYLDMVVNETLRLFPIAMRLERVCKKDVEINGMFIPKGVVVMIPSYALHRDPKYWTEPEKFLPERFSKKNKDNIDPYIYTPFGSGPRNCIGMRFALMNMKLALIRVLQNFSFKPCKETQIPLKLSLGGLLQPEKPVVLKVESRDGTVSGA
T1 sequence (Q00788 whole entry): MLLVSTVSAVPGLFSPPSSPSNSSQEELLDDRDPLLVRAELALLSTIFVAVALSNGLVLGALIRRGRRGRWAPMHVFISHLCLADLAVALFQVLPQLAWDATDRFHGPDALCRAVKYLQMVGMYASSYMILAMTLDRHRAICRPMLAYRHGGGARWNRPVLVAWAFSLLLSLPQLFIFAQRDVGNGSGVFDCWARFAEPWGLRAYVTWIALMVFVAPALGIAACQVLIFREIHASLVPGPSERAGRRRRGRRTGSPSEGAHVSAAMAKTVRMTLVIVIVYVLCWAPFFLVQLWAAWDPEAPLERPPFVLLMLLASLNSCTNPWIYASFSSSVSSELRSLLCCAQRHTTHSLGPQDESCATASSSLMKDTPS

Row | SMILES | Ki [1] | Ki [2] | IC50 [3] | melting point
1 | O=C(Nc1ccc(C(=O)N2CCc3nc(-c4ccccn4)[nH]c3-c3ccccc32)cc1)c1ccccc1-c1ccccc1 [Example 1, N-{4-[2-(2-Pyridyl)-1,4,5,6-tetrahydroimidazo[4,5-d][1]benzazepine-6-carbonyl]phenyl}biphenyl-2-carboxamide hydrochloride] | 6.03 nM | 2.82 nM | 7.82 µM | 
2 | O=C(Nc1ccc(C(=O)N2CCc3nc(C4CC4)[nH]c3-c3ccccc32)cc1)c1ccccc1-c1ccccc1 [Control compound 2, N-[4(2-Cyclopropyl-1,4,5,6-tetrahydroimidazo[4,5-d] [1]benzazepine-6-carbonyl)phenyl]biphenyl-2-carboxamide hydrochloride, reference compound] | 1.05 nM | 1.23 nM | 0.43 µM | 
3 | O=C(Nc1ccc(C(=O)N2CCc3nc(-c4ccccn4)[nH]c3-c3ccccc32)nc1)c1ccccc1-c1ccccc1 [Example 11, N-{6-[2-(2-pyridyl)-1,4,5,6-tetrahydroimidazo[4,5-d][1]benzazepine-6-carbonyl]-3-pyridyl}biphenyl-2-carboxamide] | 12.3 nM | 1.95 nM | 2 µM | 
4 | O=C(Nc1ccc(C(=O)N2CCc3nc(-c4ccccn4)[nH]c3-c3ccccc32)cc1)c1ccccc1-c1ccccc1F [Example 9, 2′-fluoro-N-{4-[2-(2-pyridyl)-1,4,5,6-tetrahydroimidazo[4,5-d][1]benzazepine-6-carbonyl]phenyl}biphenyl-2-carboxamide] | 10.5 nM | 3.8 nM | 2.4 µM | 
5 | O=C(Nc1ccc(C(=O)N2CCc3nc(-c4ccccn4)[nH]c3-c3ccccc32)cc1)c1ccccc1-c1ccccc1 [Example 6, N-{4-[2-(2-Pyridyl)-1,4,5,6-tetrahydroimidazo[4,5-d][1]benzazepine-6-carbonyl]phenyl}biphenyl-2-carboxamide] |  |  |  | 240 to 242 °C
6 | O=C(Nc1ccc(C(=O)N2CCc3nc(-c4ccccn4)[nH]c3-c3ccccc32)cc1O)c1ccccc1-c1ccccc1 [Example 12, N-{2-Hydroxy-4-[2-(2-pyridyl)-1,4,5,6-tetrahydroimidazo[4,5-d][1]-benzazepine-6-carbonyl]phenyl}biphenyl-2-carboxamide hydrochloride] | 28.8 nM | 7.59 nM | 5.9 µM | 
7 | O=C(Nc1ccc(C(=O)N2CCc3nc(Cc4ccccc4)[nH]c3-c3ccccc32)cc1)c1ccccc1-c1ccccc1 [Control compound 1, N-[4-(2-Benzyl-1,4,5,6-tetrahydroimidazo[4 5-d] [1]benzazepine-6-carbonyl)phenyl]biphenyl-2-carboxamide hydrochloride, reference compound] | 8.51 nM | 7.76 nM | 0.21 µM | 
